Assay results taken from patent US20240270821A1, “GIP/GLP1/GCG TRI-RECEPTOR AGONISTS AND USES THEREOF” (priority 2023, published 2024).
Like-named read-outs stand apart in the source and are kept apart here. Blank lines part the entries; values can stand above or below the molecule they belong to. Starred links: 1 amine or outer side, 2 acyl side, 3 side chain; linkers in the order of their positions; H or OH if unused. Non-standard residues stand in square brackets, D forms with d. Groups on a side chain read outwards from the residue. *: point of attachment. C18 diacid = O=C(O)CCCCCCCCCCCCCCCCC(=O)*; αMePhe(2-F) = C[C@](N)(Cc1ccccc1F)C(=O)O; γGlu = O=C(O)[C@H](CCC(=O)[*:2])N[*:1]; αMe4Pal = C[C@](N)(Cc1ccncc1)C(=O)O; αMeY = C[C@](N)(Cc1ccc(O)cc1)C(=O)O; 4Pal = N[C@@H](Cc1ccncc1)C(=O)O; αMeL = CC(C)C[C@](C)(N)C(=O)O; αMeS = C[C@](N)(CO)C(=O)O; Orn = NCCC[C@H](N)C(=O)O; AEEA = NCCOCCOCC(=O)O; Aib = CC(C)(N)C(=O)O

Key:
Type in all cases: cell-based
hGLP-1R [1] = target: T1, hGLP-1R (Homo sapiens, UniProt P43220); assay: Functional cAMP activation in the presence of 0.1% casein (no HSA);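 also: intracellular cAMP rise after 30 min at 37 °C read by HTRF, normalized between buffer only (0%) and maximal control ligand (100%), four-parameter variable-slope fit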
T1 sequence (P43220 24-463): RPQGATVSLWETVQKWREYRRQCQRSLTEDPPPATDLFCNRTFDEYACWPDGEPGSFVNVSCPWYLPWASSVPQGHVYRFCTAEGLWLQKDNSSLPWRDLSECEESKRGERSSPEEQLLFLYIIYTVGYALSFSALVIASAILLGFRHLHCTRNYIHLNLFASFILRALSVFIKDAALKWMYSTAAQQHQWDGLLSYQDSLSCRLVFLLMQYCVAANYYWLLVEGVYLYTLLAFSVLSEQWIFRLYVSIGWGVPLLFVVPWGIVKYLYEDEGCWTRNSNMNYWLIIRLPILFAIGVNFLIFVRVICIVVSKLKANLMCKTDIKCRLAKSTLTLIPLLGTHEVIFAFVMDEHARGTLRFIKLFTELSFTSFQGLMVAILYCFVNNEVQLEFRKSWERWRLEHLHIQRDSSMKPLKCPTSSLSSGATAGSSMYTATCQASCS

hGIPR [2] = target: T2, hGIPR (Homo sapiens, UniProt P48546); assay: Functional cAMP activity in the presence of 1% HSA
T2 sequence (P48546 22-466): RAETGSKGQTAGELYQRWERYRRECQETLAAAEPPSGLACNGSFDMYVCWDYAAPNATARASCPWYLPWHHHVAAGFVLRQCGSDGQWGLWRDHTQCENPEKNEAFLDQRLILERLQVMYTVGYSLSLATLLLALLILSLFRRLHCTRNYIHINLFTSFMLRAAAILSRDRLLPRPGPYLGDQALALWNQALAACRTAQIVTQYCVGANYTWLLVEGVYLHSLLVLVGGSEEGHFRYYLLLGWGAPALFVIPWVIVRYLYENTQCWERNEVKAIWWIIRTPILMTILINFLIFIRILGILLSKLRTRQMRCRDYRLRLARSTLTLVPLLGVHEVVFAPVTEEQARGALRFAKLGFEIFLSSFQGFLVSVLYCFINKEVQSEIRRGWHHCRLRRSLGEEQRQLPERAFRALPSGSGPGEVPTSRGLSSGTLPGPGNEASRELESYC

hGcgR = hGcgR (Homo sapiens, UniProt P47871); assay: Functional cAMP activation in the presence of 0.1% casein (no HSA);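 also: intracellular cAMP rise after 30 min at 37 °C, read by HTRF against a cAMP standard curve, scaled from buffer only (0%) to maximal control ligand response (100%)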
hGcgR, sequence (P47871 26-477): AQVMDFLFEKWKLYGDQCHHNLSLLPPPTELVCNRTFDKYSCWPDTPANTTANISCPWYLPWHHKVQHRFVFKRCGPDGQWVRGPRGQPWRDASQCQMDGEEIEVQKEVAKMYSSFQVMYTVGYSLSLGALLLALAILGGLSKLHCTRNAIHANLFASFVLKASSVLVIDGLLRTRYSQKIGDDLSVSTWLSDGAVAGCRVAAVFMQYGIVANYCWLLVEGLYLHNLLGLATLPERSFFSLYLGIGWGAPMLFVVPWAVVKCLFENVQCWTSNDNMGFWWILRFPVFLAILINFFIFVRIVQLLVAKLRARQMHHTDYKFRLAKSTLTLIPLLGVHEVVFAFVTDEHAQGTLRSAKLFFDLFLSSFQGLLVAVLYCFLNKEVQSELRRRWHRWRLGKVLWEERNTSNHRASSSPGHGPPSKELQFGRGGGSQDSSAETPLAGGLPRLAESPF

hGLP-1R [3] = target: T1, hGLP-1R; assay: Functional cAMP activity in the presence of 1% HSA
hGIPR [4] = target: T2, hGIPR; assay: Functional cAMP activation in the presence of 0.1% casein (no HSA);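 also: intracellular cAMP rise after 30 min at 37 °C read by HTRF against a standard curve, scaled between buffer alone (0%) and top control ligand concentration (100%), four-parameter fit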
human GcgR = human GcgR (Homo sapiens, UniProt P47871); assay: Functional cAMP activity in the presence of 1% HSA
human GcgR, sequence (P47871 26-477): as above

[5] = in the presence of 0.1% casein (no HSA), geometric mean, read-out: Relative cAMP EC50, hGLP-1R
[6] = in the presence of 0.1% casein (no HSA), geometric mean, read-out: Relative cAMP EC50, hGcgR
[7] = read-out: cAMP Rel EC50, hGLP-1R
[8] = in the presence of 0.1% casein (no HSA), geometric mean, read-out: Relative cAMP EC50, hGIPR

Molecule: CC[C@H](C)[C@H](NC(=O)[C@H](CC(C)C)NC(=O)[C@](C)(Cc1ccc(O)cc1)NC(=O)[C@H](CCC(=O)O)NC(=O)[C@@H](NC(=O)[C@H](Cc1ccccc1)NC(=O)[C@H](CCC(N)=O)NC(=O)[C@](C)(Cc1ccncc1)NC(=O)[C@H](CCC(N)=O)NC(=O)[C@H](C)NC(=O)[C@H](CCCCNC(=O)COCCOCCNC(=O)CC[C@H](NC(=O)CCCCCCCCCCCCCCCCC(=O)O)C(=O)O)NC(=O)[C@H](CCCN)NC(=O)[C@H](CC(=O)O)NC(=O)[C@H](CC(C)C)NC(=O)[C@](C)(CC(C)C)NC(=O)[C@H](CCC(N)=O)NC(=O)[C@H](CO)NC(=O)[C@H](Cc1ccncc1)NC(=O)[C@H](CC(=O)O)NC(=O)[C@H](CO)NC(=O)[C@@H](NC(=O)[C@H](Cc1ccccc1)NC(=O)[C@@H](NC(=O)CNC(=O)[C@H](CCC(N)=O)NC(=O)C(C)(C)NC(=O)[C@@H](N)Cc1ccc(O)cc1)[C@@H](C)O)[C@@H](C)O)[C@@H](C)CC)C(=O)N[C@@H](CCC(=O)O)C(=O)NC(C)(C)C(=O)NCC(=O)N1CCC[C@H]1C(=O)N[C@@H](CO)C(=O)N[C@@H](CO)C(=O)NCC(=O)N[C@@H](C)C(=O)N1CCC[C@H]1C(=O)N1CCC[C@H]1C(=O)N1CCC[C@H]1C(=O)N[C@@H](CO)C(=O)NCC(=O)N[C@@H](CO)C(=O)N[C@@H](CCC(=O)O)C(=O)N[C@@H](CCC(=O)O)C(N)=O [Example 1109]
EC50 (hGLP-1R [1]; [5]): 2.3 nM | EC50 (hGIPR [2]; read-out: cAMP Rel EC50, hGIPR): 20.2 nM | EC50 (hGcgR; [6]): 10.8 nM | EC50 (hGLP-1R [3]; [7]): 102 nM | EC50 (hGIPR [4]; [8]): 0.0626 nM | EC50 (human GcgR; read-out: cAMP Rel EC50, hGcgR): 510 nM

Molecule: H-Y[Aib]QGT[αMePhe(2-F)]TSD[4Pal]SI[αMeL]LD[Orn]K([AEEA-γGlu-C18 diacid])AQ[αMe4Pal][Orn]FI[dE][αMeY]LIEGGPSSGAPPPESEE-NH2 [Example 756]
EC50 (hGLP-1R [1]; read-out: Relative cAMP EC50, hGLP-1R): 0.212 nM | EC50 (hGIPR [2]; read-out: cAMP Rel EC50, hGIPR): 1.61 nM | EC50 (hGcgR; read-out: Relative cAMP EC50, hGcgR): 2.26 nM | EC50 (hGLP-1R [3]; [7]): 28.2 nM | EC50 (hGIPR [4]; read-out: Relative cAMP EC50, hGIPR): 0.0096 nM | EC50 (human GcgR; read-out: cAMP Rel EC50, hGcgR): 372 nM

Molecule: H-Y[Aib]Q[dA]T[αMePhe(2-F)]TSD[4Pal][αMeS]I[αMeL]LD[Orn]K([AEEA-γGlu-C18 diacid])AQ[Aib]EFI[dE][αMeY]LVEGGPSSGAPPPSGS-NH2 [Example 1204]
EC50 (hGLP-1R [1]; 0.1% casein, no HSA, geometric mean, read-out: Relative cAMP EC50, hGLP-1R): 0.338 nM | EC50 (hGIPR [2]; read-out: cAMP Rel EC50, hGIPR): 15.8 nM | EC50 (hGcgR; 0.1% casein, no HSA, geometric mean, read-out: Relative cAMP EC50, hGcgR): 3.5 nM | EC50 (hGLP-1R [3]; [7]): 37.4 nM | EC50 (hGIPR [4]; 0.1% casein, no HSA, geometric mean, read-out: Relative cAMP EC50, hGIPR): 0.21 nM | EC50 (human GcgR; read-out: cAMP Rel EC50, hGcgR): 507 nM

Molecule: H-Y[Aib]QGTFTSD[4Pal]S[Orn][αMeL]LD[Orn]K([γGlu-γGlu-C18 diacid])AQ[αMe4Pal]QFIE[αMeY]LLEGGPSSGAPPPSGSEE-NH2 [Example 975]
EC50 (hGLP-1R [1]): 10.2 nM | EC50 (hGIPR [2]): 30.1 nM | EC50 (hGcgR): 2.61 nM | EC50 (hGLP-1R [3]): 1810 nM | EC50 (hGIPR [4]): 0.344 nM | EC50 (human GcgR): 374 nM

EC50 (hGLP-1R [1]; [5]): 0.262 nM | EC50 (hGIPR [2]; read-out: cAMP Rel EC50, hGIPR): 0.287 nM | EC50 (hGcgR; [6]): 1.31 nM | EC50 (hGLP-1R [3]; [7]): 40 nM | EC50 (hGIPR [4]; [8]): 0.00339 nM | EC50 (human GcgR; read-out: cAMP Rel EC50, hGcgR): 206 nM
Molecule: H-Y[Aib]QGT[αMePhe(2-F)]TSD[4Pal][αMeS]I[αMeL]LD[Orn]K([γGlu-γGlu-C18 diacid])AQ[αMe4Pal]EFI[dE][αMeY]LIEGGPSSGEPPPSGE-NH2 [Example 1151]

Molecule: CC[C@H](C)[C@H](NC(=O)[C@H](Cc1ccccc1)NC(=O)[C@H](C)NC(=O)C(C)(C)NC(=O)[C@H](CCC(N)=O)NC(=O)[C@H](C)NC(=O)[C@H](CCCCNC(=O)COCCOCCNC(=O)CC[C@H](NC(=O)CCCCCCCCCCCCCCCCC(=O)O)C(=O)O)NC(=O)[C@H](CCCCN)NC(=O)[C@H](CC(=O)O)NC(=O)[C@H](CC(C)C)NC(=O)[C@](C)(CC(C)C)NC(=O)[C@H](CCC(N)=O)NC(=O)[C@H](CO)NC(=O)[C@H](Cc1ccncc1)NC(=O)[C@H](CC(=O)O)NC(=O)[C@H](CO)NC(=O)[C@@H](NC(=O)[C@H](Cc1ccccc1)NC(=O)[C@@H](NC(=O)CNC(=O)[C@H](CCC(N)=O)NC(=O)C(C)(C)NC(=O)[C@@H](N)Cc1ccc(O)cc1)[C@@H](C)O)[C@@H](C)O)C(=O)N[C@@H](CCC(=O)O)C(=O)N[C@@H](Cc1ccc(O)cc1)C(=O)N[C@@H](CC(C)C)C(=O)N[C@@H](CC(C)C)C(=O)N[C@@H](CCC(=O)O)C(=O)N[C@H](C)C(=O)NCC(=O)N1CCC[C@H]1C(=O)N[C@@H](CO)C(=O)N[C@@H](CO)C(=O)NCC(=O)N[C@@H](C)C(=O)N1CCC[C@H]1C(=O)N1CCC[C@H]1C(=O)N1CCC[C@H]1C(=O)N[C@@H](CO)C(=O)NCC(=O)N[C@H](C(N)=O)[C@@H](C)O [Example 821]
EC50 (hGLP-1R [1]; [5]): 2.79 nM | EC50 (hGIPR [2]; read-out: cAMP Rel EC50, hGIPR): 26.1 nM | EC50 (hGcgR; [6]): 6.74 nM | EC50 (hGLP-1R [3]; [7]): 362 nM | EC50 (hGIPR [4]; [8]): 0.152 nM | EC50 (human GcgR; read-out: cAMP Rel EC50, hGcgR): 989 nM
